“Also recorded” adds a separate entry of the source. Each block holds one compound with its values, some of them ahead of it.
Columns and labels:
[1] = tested on: carrageenan-induced paw edema; assay: In vivo carrageenan-induced paw edema; settings: 50 mg/kg oral, mice
gastric mucosa = assay: Histopathological examination of stomach sections (H&E)
COX-1 = biological target: T1, COX-1 (Ovis aries, UniProt P05979); assay: In vitro COX-1 inhibition, fluorescent inhibitor screening assay kit; settings: for inhibitory activity on COX-1: at a concentration of 100 μM
T1 sequence (P05979 25-600): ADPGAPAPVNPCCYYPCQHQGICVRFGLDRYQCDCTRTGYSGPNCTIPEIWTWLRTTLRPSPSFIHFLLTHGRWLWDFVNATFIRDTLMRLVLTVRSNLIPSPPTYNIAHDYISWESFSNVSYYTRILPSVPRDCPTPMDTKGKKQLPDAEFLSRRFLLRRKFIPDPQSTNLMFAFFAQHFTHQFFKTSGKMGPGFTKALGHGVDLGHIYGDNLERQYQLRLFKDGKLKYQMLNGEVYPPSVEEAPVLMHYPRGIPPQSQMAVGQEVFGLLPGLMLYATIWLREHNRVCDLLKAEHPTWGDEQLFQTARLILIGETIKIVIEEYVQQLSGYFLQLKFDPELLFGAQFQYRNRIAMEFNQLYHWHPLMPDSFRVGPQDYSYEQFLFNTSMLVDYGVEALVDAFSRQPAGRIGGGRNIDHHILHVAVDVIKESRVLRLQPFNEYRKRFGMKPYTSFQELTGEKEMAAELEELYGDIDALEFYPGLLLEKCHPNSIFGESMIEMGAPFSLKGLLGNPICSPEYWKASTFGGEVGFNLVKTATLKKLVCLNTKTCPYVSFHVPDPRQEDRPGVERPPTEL
Description: (§2) Test compounds, dissolved in DMSO, and were pre-incubated with the enzymes at 37 °C for 5 min before initiating the reaction with 1 mM arachidonic acid under light-protected conditions. The fluorescence was measured using a multi-well spectrophotometer (fluorescence plate reader). […] The percentage inhibition was calculated by comparing the absorbance values of the compounds to the vehicle control.
(§3) This protocol utilizes a colorimetric assay to measure the peroxidase activity of Prostaglandin G/H
(§4) Synthase (COX enzyme). The COX enzyme converts Arachidonic Acid (AA) to Prostaglandin G2
(§5) (PGG2), which is then reduced to Prostaglandin H2 (PGH2) by the inherent peroxidase activity.
(§6) peroxidase reaction co-oxidizes a chromogen, such as N,N,N',N'-Tetramethyl-p-phenylenediamine
(§7) (TMPD), resulting in a colored product that can be measured spectrophotometrically at 590-630 nm.
(§8) inhibition of COX enzyme by a test compound reduces the formation of this colored product, allowing
(§9) for the calculation of percentage inhibition and subsequent IC50 values.
(§10) o Ovine COX-1 (purified, commercially available)
(§11) • Substrate: Arachidonic Acid (AA). Prepare a stock solution in ethanol. Note: AA is unstable;
(§12) aliquot and store under inert gas (e.g., Argon) at -80°C.
(§13) • Cofactor: Hemin. Prepare a stock solution in DMSO.
(§14) • Chromogen: N,N,N',N'-Tetramethyl-p-phenylenediamine (TMPD) dihydrochloride.
(§15) • Assay Buffer: 100 mM Tris-HCl buffer, pH 8.0. May contain 1-5 mM EDTA and 1-2 µM
Phenol (acts as a cofactor for COX-2).
(§16) • Solvents: Dimethyl Sulfoxide (DMSO), Ethanol (absolute).
(§17) consistent across all wells (typically ≤1% final concentration).
o Keep all dilutions on ice.
(§18) o COX-1 Working Solution: Dilute ovine COX-1 in ice-cold assay buffer to a final
(§19) concentration of ~50-100 U/mL. Add Hemin to a final concentration of 1 µM.
(§20) o Note: The exact enzyme units (U) required must be determined by a preliminary activity
(§21) test to ensure the reaction is linear and within the dynamic range of the assay.
(§22) Substrate/Chromogen Solution (Prepare Fresh):
(§23) o To a tube containing assay buffer, add TMPD to a final concentration of 0.2-0.5 mM.
(§24) o Add Arachidonic Acid to a final concentration of 100 µM. Vortex gently.
(§25) o Keep this solution protected from light and on ice until use.
(§26) Assay Setup (Performed in duplicate or triplicate)

human recombinant COX-2 = biological target: T2, human recombinant COX-2 (Homo sapiens, UniProt P35354); assay: In vitro COX-2 inhibition, fluorescent inhibitor screening assay kit; settings: for inhibitory activity on COX-2: at a concentration of 100 μM
T2 sequence (P35354 18-604): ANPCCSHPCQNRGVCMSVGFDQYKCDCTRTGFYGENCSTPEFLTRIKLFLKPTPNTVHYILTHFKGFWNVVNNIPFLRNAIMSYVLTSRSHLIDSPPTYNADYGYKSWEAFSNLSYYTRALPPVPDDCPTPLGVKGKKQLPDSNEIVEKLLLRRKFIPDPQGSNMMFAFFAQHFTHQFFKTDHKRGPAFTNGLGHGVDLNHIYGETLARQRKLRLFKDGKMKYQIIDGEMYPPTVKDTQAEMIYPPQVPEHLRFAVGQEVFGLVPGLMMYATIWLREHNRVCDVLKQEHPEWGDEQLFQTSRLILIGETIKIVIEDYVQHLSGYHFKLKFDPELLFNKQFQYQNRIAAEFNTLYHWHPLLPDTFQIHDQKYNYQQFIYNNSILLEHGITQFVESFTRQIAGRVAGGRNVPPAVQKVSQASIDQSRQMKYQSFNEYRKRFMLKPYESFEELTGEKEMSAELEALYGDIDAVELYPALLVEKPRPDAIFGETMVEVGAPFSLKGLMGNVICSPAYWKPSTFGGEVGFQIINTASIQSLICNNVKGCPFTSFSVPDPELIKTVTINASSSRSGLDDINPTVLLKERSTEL
Description: as §2, §3, §4, §5, §6, §7, §8, §9, §10, §11, §12, §13, §14, §15
Phenol (acts as a cofactor for COX-2).
as §16, §17
o Keep all dilutions on ice.
as §18, §19, §20, §21, §22, §23, §24, §25, §26

TNF-α = assay: ELISA of serum TNF-α in carrageenan-treated mice; type: in vivo; settings: 50 mg/kg; carrageenan-treated mice at 3 h; compared to the control group
Description: To evaluate the anti-inflammatory mechanisms of these compounds, two key chemical mediators, TNF-α and IL-6, were assessed using enzyme-linked immunosorbent assay (ELISA).
(§1) All mice were sacrificed under anesthesia using ketamine/xylazine (50/15 mg/kg). Blood was collected for the ELISA assays to determine the levels of cytokines TNF-α and IL-6 using the Rat IL6 (Interleukin 6) ELISA Kit and Rat TNFα ELISA Kit (MyBioSource, San Diego, CA, USA), in accordance with the manufacturer’s instructions. The quantitative sandwich enzyme immunoassay technique is the fundamental principle of the TNF-α assay. A microplate was pre-coated with an antibody specific for TNF-α. Standards and samples were pipetted into the wells, and the immobilized antibody bound to any TNF-α that was present. A biotin-conjugated antibody that was specific for TNF-α was introduced to the wells after any unbound substances were removed. Horseradish peroxidase (HRP) conjugated with avidin was introduced to the wells subsequent to the cleaning process. After a wash to eliminate any unbound avidin–enzyme reagent, a substrate solution was introduced to the wells, and the color developed in proportion to the quantity of TNF-α bound in the initial step. The color development was halted, and the color intensity was quantified. Additionally, the Sandwich enzyme immunoassay is the test principle utilized for IL-6. The microtiter plates included in this preparation were pre-coated with an antibody that was specific to Rat IL6. A biotin-conjugated antibody specific to Rat IL6 was then added to the appropriate microtiter plate wells along with standards or samples. Subsequently, each microplate well was incubated with avidin conjugated to horseradish peroxidase (HRP). […] The addition of sulfuric acid solution terminated the enzyme–substrate reaction, and the color change was observed spectrophotometrically at a wavelength of 450 nm ± 10 nm. The concentration of Rat IL6 in the samples was subsequently determined by comparing the OD of the samples to the standard curve.
Blood was collected immediately following the decapitation of mice, performed in accordance with the institutional animal care and use committee (IACUC) guidelines. After decapitation, whole blood was allowed to flow freely and was collected directly into EDTA and heparinized tubes. The whole blood was centrifuged at 3000× g for 10 min at 4 °C, and the plasma was carefully collected and stored at –80 °C until further analysis.

IL-6 = assay: ELISA of serum IL-6 in carrageenan-treated mice; type: in vivo; settings: 50 mg/kg; carrageenan-treated mice at 3 h
Description: Therefore, the anti-inflammatory activity of the tested compounds may hinge on their ability to suppress the pro-inflammatory TNF-α and IL-6 levels.
as §1, with “curve. […]” for “curve.”

[2] = stomach sections stained with H&E, 50 mg/kg

Compound: Cc1ccc(-c2cc(C(F)(F)F)nn2-c2ccc(S(N)(=O)=O)cc2)cc1 [Celecoxib, celecoxib, reference compound]
Percentage of inhibition of carrageenan-induced paw edema ([1]; 1 h): 0.31%
Percentage of inhibition of carrageenan-induced paw edema ([1]; 2 h): 44.88%
Percentage of inhibition of carrageenan-induced paw edema ([1]; 3 h): 56.14%
histological structure of the gastric mucosa (gastric mucosa; [2]): normal gastric mucosal histology; also recorded: normal histological structure of the gastric mucosa

inhibitory activity on COX-1 (COX-1): no inhibitory activity
inhibitory activity on COX-2 (human recombinant COX-2): no inhibitory activity
Compound: O=C(Cn1cnc2c(cnn2-c2ccccc2)c1=O)Nc1ccccc1 [Compound 5a, 2-(4-Oxo-1-Phenyl-1,4-Dihydro-5H-Pyrazolo[3,4-d]Pyrimidin-5-yl)-N-Phenyl Acetamide]

inhibitory activity on COX-1 (COX-1): no inhibitory activity
inhibitory activity on COX-2 (human recombinant COX-2): no inhibitory activity
Compound: O=C(Cn1cnc2c(cnn2-c2ccccc2)c1=O)Nc1ccc(Cl)cc1 [Compound 5b, N-(4-Chlorophenyl)-2-(4-Oxo-1-Phenyl-1,4-Dihydro-5H-Pyrazolo[3,4-d]Pyrimidin-5-yl) Acetamide]

inhibitory activity on COX-1 (COX-1): no inhibitory activity
IC50 (human recombinant COX-2): > 100 µM
inhibitory activity on COX-2 (human recombinant COX-2): no inhibitory activity
Compound: O=C(Cn1cnc2c(cnn2-c2ccccc2)c1=O)Nc1ccc(Br)cc1 [Compound 5c, N-(4-Bromophenyl)-2-(4-Oxo-1-Phenyl-1,4-Dihydro-5H-Pyrazolo[3,4-d]Pyrimidin-5-yl) Acetamide]

IC50 (COX-1): 14.1 ± 0.47 µM
COX1 %inh (COX-1; conc 0.01 (uM)): 0.25%
COX1 %inh (COX-1; conc 0.1 (uM)): 1.77%
COX1 %inh (COX-1; conc 1 (uM)): 8.07%
COX1 %inh (COX-1; conc 10 (uM)): 49.5%
COX1 %inh (COX-1; conc 100 (uM)): 76%
IC50 (human recombinant COX-2): 0.49 ± 0.017 µM
SI, in vitro COX-2 selectivity index (COX-1 IC50/COX-2 IC50) (human recombinant COX-2): 28.73
COX2 %inh (human recombinant COX-2; conc 0.01 (uM)): -402%
COX2 %inh (human recombinant COX-2; conc 0.1 (uM)): -301%
COX2 %inh (human recombinant COX-2; conc 1 (uM)): -167%
COX2 %inh (human recombinant COX-2; conc 10 (uM)): -15%
COX2 %inh (human recombinant COX-2; conc 100 (uM)): 76.6%
Compound: O=C(Cn1cnc2c(cnn2-c2ccccc2)c1=O)Nc1ccc([N+](=O)[O-])cc1 [Compound 5d, N-(4-Nitrophenyl)-2-(4-oxo-1-phenyl-1,4-dihydro-5H-pyrazolo[3,4-d]pyrimidin-5-yl) Acetamide]
TNF-α levels in serum (TNF-α): No significant differences
Percentage of inhibition of carrageenan-induced paw edema ([1]; 1 h): 3.43%
Percentage of inhibition of carrageenan-induced paw edema ([1]; 2 h): 21.26%
Percentage of inhibition of carrageenan-induced paw edema ([1]; 3 h): 27.32%
histological structure of the gastric mucosa (gastric mucosa; stomach sections stained with H&E; 50 mg/kg): normal histological structure of the gastric mucosa

inhibitory activity on COX-1 (COX-1): no inhibitory activity
inhibitory activity on COX-2 (human recombinant COX-2): no inhibitory activity
Compound: Cc1ccccc1NC(=O)Cn1cnc2c(cnn2-c2ccccc2)c1=O [Compound 5e, 2-(4-Oxo-1-Phenyl-1,4-Dihydro-5H-Pyrazolo[3,4-d]Pyrimidin-5-yl)-N-(o-Tolyl) Acetamide]

inhibitory activity on COX-1 (COX-1): no inhibitory activity
inhibitory activity on COX-2 (human recombinant COX-2): no inhibitory activity
Compound: Cc1cccc(NC(=O)Cn2cnc3c(cnn3-c3ccccc3)c2=O)c1 [Compound 5f, 2-(4-Oxo-1-Phenyl-1,4-Dihydro-5H-Pyrazolo[3,4-d]Pyrimidin-5-yl)-N-(m-Tolyl) Acetamide]

inhibitory activity on COX-1 (COX-1): no inhibitory activity
inhibitory activity on COX-2 (human recombinant COX-2): no inhibitory activity
Compound: Cc1ccc(NC(=O)Cn2cnc3c(cnn3-c3ccccc3)c2=O)cc1 [Compound 5g, 2-(4-Oxo-1-Phenyl-1,4-Dihydro-5H-Pyrazolo[3,4-d]Pyrimidin-5-yl)-N-(p-Tolyl) Acetamide]

inhibitory activity on COX-1 (COX-1): no inhibitory activity
inhibitory activity on COX-2 (human recombinant COX-2): no inhibitory activity
Compound: COc1ccccc1NC(=O)Cn1cnc2c(cnn2-c2ccccc2)c1=O [Compound 5h, N-(2-Methoxyphenyl)-2-(4-Oxo-1-Phenyl-1,4-Dihydro-5H-Pyrazolo[3,4-d]Pyrimidin-5-yl) Acetamide]

inhibitory activity on COX-1 (COX-1): no inhibitory activity
inhibitory activity on COX-2 (human recombinant COX-2): no inhibitory activity
Compound: COc1ccc(NC(=O)Cn2cnc3c(cnn3-c3ccccc3)c2=O)cc1 [Compound 5i, N-(4-Methoxyphenyl)-2-(4-Oxo-1-Phenyl-1,4-Dihydro-5H-Pyrazolo[3,4-d]Pyrimidin-5-yl) Acetamide]

IC50 (COX-1): 6.4 ± 0.22 µM
COX1 %inh (COX-1; conc 0.01 (uM)): 1.32%
COX1 %inh (COX-1; conc 0.1 (uM)): 7.85%
COX1 %inh (COX-1; conc 1 (uM)): 19.2%
COX1 %inh (COX-1; conc 10 (uM)): 57.9%
COX1 %inh (COX-1; conc 100 (uM)): 80.1%
IC50 (human recombinant COX-2): 0.398 ± 0.014 µM
SI, in vitro COX-2 selectivity index (COX-1 IC50/COX-2 IC50) (human recombinant COX-2): 16.09
COX2 %inh (human recombinant COX-2; conc 0.01 (uM)): -425%
COX2 %inh (human recombinant COX-2; conc 0.1 (uM)): -285%
COX2 %inh (human recombinant COX-2; conc 1 (uM)): -103%
COX2 %inh (human recombinant COX-2; conc 10 (uM)): 9.91%
COX2 %inh (human recombinant COX-2; conc 100 (uM)): 54.8%
Compound: O=C(Cn1cnc2c(cnn2-c2ccccc2)c1=O)Nc1ccc2ccccc2c1 [Compound 5j, N-(Naphthalen-2-yl)-2-(4-Oxo-1-Phenyl-1,4-Dihydro-5H-Pyrazolo[3,4-d]Pyrimidin-5-yl) Acetamide]
TNF-α levels in serum (TNF-α): significantly reduced
IL-6 levels in serum (IL-6): significantly reduced; also recorded: highest inhibition of IL-6 levels, approaching normal levels
Percentage of inhibition of carrageenan-induced paw edema ([1]; 1 h): 28.35%
Percentage of inhibition of carrageenan-induced paw edema ([1]; 2 h): 50.13%
Percentage of inhibition of carrageenan-induced paw edema ([1]; 3 h, 50 mg/kg): 62.41%
histological structure of the gastric mucosa (gastric mucosa; [2]): preserved gastric tissue integrity; also recorded: intact gastric tissue; also recorded: normal histological structure of the gastric mucosa

inhibitory activity on COX-1 (COX-1): no inhibitory activity
inhibitory activity on COX-2 (human recombinant COX-2): no inhibitory activity
Compound: CC(=O)c1ccc(NC(=O)Cn2cnc3c(cnn3-c3ccccc3)c2=O)cc1 [Compound 5l, N-(4-Acetylphenyl)-2-(4-Oxo-1-Phenyl-1,4-Dihydro-5H-Pyrazolo[3,4-d]Pyrimidin-5-yl) Acetamide]

Compound: COc1ccc2c(c1)c(CC(=O)O)c(C)n2C(=O)c1ccc(Cl)cc1 [Indomethacin, indomethacin, reference compound]
Percentage of inhibition of carrageenan-induced paw edema ([1]; 1 h): 15.89%
Percentage of inhibition of carrageenan-induced paw edema ([1]; 2 h): 29.13%
Percentage of inhibition of carrageenan-induced paw edema ([1]; 3 h, 50 mg/kg): 32.33%
Percentage of inhibition of carrageenan-induced paw edema ([1]; 3 h, listed as indomethacin, 50 mg/kg): 32.33%

Source: article PMC12472512, “Design, Synthesis, In Silico Docking, Multitarget Bioevaluation and Molecular Dynamic Simulation of Novel Pyrazolo[3,4-d]Pyrimidinone Derivatives as Potential In Vitro and In Vivo Anti-Inflammatory Agents” (Pharmaceuticals, 2025)
